In ChEMBL document CHEMBL5113453, “Design, synthesis, and biological evaluation of a new series of pyrazole derivatives: Discovery of potent and selective JNK3 kinase inhibitors” (Bioorg Med Chem, 2022):

Columns and labels:
BT-549 = test: Antiproliferative activity against human BT-549 cells measured after 48 hrs by SRB assay; type: functional, cell-based; settings: for IC50: BT-549, 48 h; for TGI: BT-549, time 48 hrs
SF-268 = test: Antiproliferative activity against human SF-268 cells measured after 48 hrs by SRB assay; type: functional, cell-based; settings: for IC50: SF-268, 48 h; for TGI: SF-268, time 48 hrs
IGROV-1 = test: Antiproliferative activity against human IGROV-1 cells measured after 48 hrs by SRB assay; type: functional, cell-based; settings: for IC50: IGROV-1, 48 h; for TGI: IGROV-1, time 48 hrs
SK-MEL-28 = test: Antiproliferative activity against human SK-MEL-28 cells measured after 48 hrs by SRB assay; type: functional, cell-based; settings: for IC50: SK-MEL-28, 48 h; for TGI: SK-MEL-28, time 48 hrs
HOP-92 = test: Antiproliferative activity against human HOP-92 cells measured after 48 hrs by SRB assay; type: functional, cell-based; settings: for IC50: HOP-92, 48 h; for TGI: HOP-92, time 48 hrs
786-0 = test: Antiproliferative activity against human 786-0 cells measured after 48 hrs by SRB assay; type: functional, cell-based; settings: for IC50: 786-0, 48 h; for TGI: 786-0, time 48 hrs
K562 = test: Antiproliferative activity against human K562 cells measured after 48 hrs by SRB assay; type: functional, cell-based; settings: for IC50: K562, 48 h; for TGI: K562, time 48 hrs
T47D = test: Antiproliferative activity against human T47D cells measured after 48 hrs by SRB assay; type: functional, cell-based; settings: for IC50: 48 h; for TGI: time 48 hrs
NCI-H226 = test: Antiproliferative activity against human NCI-H226 cells measured after 48 hrs by SRB assay; type: functional, cell-based; settings: for IC50: NCI-H226, 48 h; for TGI: NCI-H226, time 48 hrs
A498 = test: Antiproliferative activity against human A498 cells measured after 48 hrs by SRB assay; type: functional, cell-based; settings: for IC50: A498, 48 h; for TGI: A498, time 48 hrs
SNB-75 = test: Antiproliferative activity against human SNB-75 cells measured after 48 hrs by SRB assay; type: functional, cell-based; settings: for IC50: SNB-75, 48 h; for TGI: SNB-75, time 48 hrs
SF-295 = test: Antiproliferative activity against human SF-295 cells measured after 48 hrs by SRB assay; type: functional, cell-based; settings: for IC50: SF-295, 48 h; for TGI: SF-295, time 48 hrs
NCI-H322M = test: Antiproliferative activity against human NCI-H322M cells measured after 48 hrs by SRB assay; type: functional, cell-based; settings: for IC50: 48 h; for TGI: time 48 hrs
NCI-H460 = test: Antiproliferative activity against human NCI-H460 cells measured after 48 hrs by SRB assay; type: functional, cell-based; settings: for IC50: NCI-H460, 48 h; for TGI: NCI-H460, time 48 hrs
EKVX = test: Antiproliferative activity against human EKVX cells measured after 48 hrs by SRB assay; type: functional, cell-based; settings: for IC50: 48 h; for TGI: time 48 hrs
UACC-257 = test: Antiproliferative activity against human UACC-257 cells measured after 48 hrs by SRB assay; type: functional, cell-based; settings: for IC50: UACC-257, 48 h; for TGI: UACC-257, time 48 hrs
SF-539 = test: Antiproliferative activity against human SF-539 cells measured after 48 hrs by SRB assay; type: functional, cell-based; settings: for IC50: SF-539, 48 h; for TGI: SF-539, time 48 hrs
HOP-62 = test: Antiproliferative activity against human HOP-62 cells measured after 48 hrs by SRB assay; type: functional, cell-based; settings: for IC50: HOP-62, 48 h; for TGI: HOP-62, time 48 hrs
NCI/ADR-RES = test: Antiproliferative activity against human NCI-ADR-RES cells measured after 48 hrs by SRB assay; type: functional, cell-based; settings: for IC50: 48 h; for TGI: time 48 hrs
UACC-62 = test: Antiproliferative activity against human UACC-62 cells measured after 48 hrs by SRB assay; type: functional, cell-based; settings: for IC50: UACC-62, 48 h; for TGI: UACC-62, time 48 hrs
KM12 = test: Antiproliferative activity against human KM12 cells measured after 48 hrs by SRB assay; type: functional, cell-based; settings: for IC50: KM12, 48 h; for TGI: KM12, time 48 hrs
U-251 = test: Antiproliferative activity against human U-251 cells measured after 48 hrs by SRB assay; type: functional, cell-based; settings: for IC50: U-251, 48 h; for TGI: U-251, time 48 hrs
[1] = target: Mitogen-activated protein kinase 10 (Homo sapiens, UniProt P53779); test: Inhibition of JNK3 (unknown origin) at 1 uM relative to control
Sequence of Mitogen-activated protein kinase 10 (P53779 whole entry): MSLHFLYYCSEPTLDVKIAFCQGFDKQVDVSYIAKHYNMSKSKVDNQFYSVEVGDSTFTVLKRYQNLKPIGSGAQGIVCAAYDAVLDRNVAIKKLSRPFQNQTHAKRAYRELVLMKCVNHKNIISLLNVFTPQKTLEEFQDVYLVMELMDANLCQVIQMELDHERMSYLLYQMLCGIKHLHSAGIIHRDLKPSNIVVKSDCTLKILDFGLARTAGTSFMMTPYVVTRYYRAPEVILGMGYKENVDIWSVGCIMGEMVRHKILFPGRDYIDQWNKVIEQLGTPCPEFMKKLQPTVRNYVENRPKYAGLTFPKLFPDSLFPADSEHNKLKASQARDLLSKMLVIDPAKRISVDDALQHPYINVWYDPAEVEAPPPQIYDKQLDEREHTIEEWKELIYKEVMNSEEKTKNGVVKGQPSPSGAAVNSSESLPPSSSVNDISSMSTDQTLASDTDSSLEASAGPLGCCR

**Q.** O=C1c2ccccc2-c2n[nH]c3cccc1c23 was tested. Which IC50 (BT-549) did it give?
**A.** 30.8 µM

**Q.** What about the TGI (BT-549) of the same compound?
**A.** > 100 µM

**Q.** And the IC50 (SF-268)?
**A.** 18.4 µM

**Q.** And the TGI (SF-268)?
**A.** > 100 µM

**Q.** What about the IC50 (IGROV-1) of the same compound?
**A.** 11.3 µM

**Q.** What about the TGI (IGROV-1) of the same compound?
**A.** > 100 µM

**Q.** And the IC50 (SK-MEL-28)?
**A.** 37.5 µM

**Q.** And the TGI (SK-MEL-28)?
**A.** > 100 µM

**Q.** What about the IC50 (HOP-92) of the same compound?
**A.** 37.6 µM

**Q.** And the TGI (HOP-92)?
**A.** > 100 µM

**Q.** What about the IC50 (786-0) of the same compound?
**A.** 27.1 µM

**Q.** What about the TGI (786-0) of the same compound?
**A.** > 100 µM

**Q.** And the IC50 (K562)?
**A.** 48.6 µM

**Q.** What about the TGI (K562) of the same compound?
**A.** > 100 µM

**Q.** What about the IC50 (T47D) of the same compound?
**A.** > 100 µM

**Q.** What about the TGI (T47D) of the same compound?
**A.** > 100 µM

**Q.** What about the IC50 (NCI-H226) of the same compound?
**A.** 22.9 µM

**Q.** What about the TGI (NCI-H226) of the same compound?
**A.** > 100 µM

**Q.** And the IC50 (A498)?
**A.** 7.03 µM

**Q.** And the TGI (A498)?
**A.** 35.4 µM

**Q.** What about the IC50 (SNB-75) of the same compound?
**A.** 16.9 µM

**Q.** What about the TGI (SNB-75) of the same compound?
**A.** 97.5 µM

**Q.** What about the IC50 (SF-295) of the same compound?
**A.** 22.5 µM

**Q.** And the TGI (SF-295)?
**A.** 86.3 µM

**Q.** And the IC50 (NCI-H322M)?
**A.** 24.9 µM

**Q.** And the TGI (NCI-H322M)?
**A.** > 100 µM

**Q.** What about the IC50 (NCI-H460) of the same compound?
**A.** 9.86 µM

**Q.** What about the TGI (NCI-H460) of the same compound?
**A.** > 100 µM

**Q.** And the IC50 (EKVX)?
**A.** 20 µM

**Q.** And the TGI (EKVX)?
**A.** > 100 µM

**Q.** And the IC50 (UACC-257)?
**A.** 29.5 µM

**Q.** And the TGI (UACC-257)?
**A.** > 100 µM

**Q.** What about the IC50 (SF-539) of the same compound?
**A.** 32.2 µM

**Q.** And the TGI (SF-539)?
**A.** > 100 µM

**Q.** What about the IC50 (HOP-62) of the same compound?
**A.** 69.3 µM

**Q.** What about the TGI (HOP-62) of the same compound?
**A.** > 100 µM

**Q.** And the IC50 (NCI/ADR-RES)?
**A.** 22.6 µM

**Q.** What about the TGI (NCI/ADR-RES) of the same compound?
**A.** 59.2 µM

**Q.** And the IC50 (UACC-62)?
**A.** 14.6 µM

**Q.** What about the TGI (UACC-62) of the same compound?
**A.** 86.5 µM

**Q.** And the IC50 (KM12)?
**A.** 2.62 µM

**Q.** What about the TGI (KM12) of the same compound?
**A.** 72.1 µM

**Q.** And the IC50 (U-251)?
**A.** 23.1 µM

**Q.** And the TGI (U-251)?
**A.** > 100 µM

**Q.** What does the source list for O=C(Nc1ccc(Cl)c(C(F)(F)F)c1)N1CCN(c2cc(-c3cn(-c4ccccc4)nc3-c3cccc(O)c3)ccn2)CC1?
**A.** IC50 (BT-549): 3.33 µM; TGI (BT-549): 7.99 µM; IC50 (SF-268): 3.3 µM; TGI (SF-268): > 22 µM; IC50 (IGROV-1): 5.11 µM; TGI (IGROV-1): > 22 µM; IC50 (SK-MEL-28): 3.41 µM; TGI (SK-MEL-28): 10.3 µM; IC50 (HOP-92): 2.59 µM; TGI (HOP-92): 15.9 µM; IC50 (786-0): 4.02 µM; TGI (786-0): > 22 µM; IC50 (K562): 2.13 µM; TGI (K562): > 22 µM; IC50 (T47D): 1.13 µM; TGI (T47D): 14.8 µM; IC50 (NCI-H226): 3.22 µM; TGI (NCI-H226): 15.8 µM; IC50 (A498): 4.72 µM; TGI (A498): 21 µM; IC50 (SNB-75): 0.63 µM; TGI (SNB-75): 11.1 µM; IC50 (SF-295): 1.5 µM; TGI (SF-295): 7.25 µM; IC50 (NCI-H322M): 5.86 µM; TGI (NCI-H322M): > 22 µM; IC50 (NCI-H460): 2.47 µM; TGI (NCI-H460): > 22 µM; IC50 (EKVX): 2.57 µM; TGI (EKVX): 19.6 µM; IC50 (UACC-257): 4.77 µM; TGI (UACC-257): 14.3 µM; IC50 (SF-539): 4.21 µM; TGI (SF-539): > 22 µM; IC50 (HOP-62): 6.28 µM; TGI (HOP-62): > 22 µM; IC50 (NCI/ADR-RES): 2.91 µM; TGI (NCI/ADR-RES): 11.9 µM; IC50 (UACC-62): 2.68 µM; TGI (UACC-62): 5.77 µM; IC50 (KM12): 3.34 µM; TGI (KM12): 15.2 µM; inhibition [1]: 14%; IC50 (U-251): 4.23 µM; TGI (U-251): > 22 µM

**Q.** What does the source list for COc1cccc(-c2nn(-c3ccccc3)cc2-c2ccnc(NCCCNC(=O)Nc3ccc(F)cc3)c2)c1?
**A.** IC50 (BT-549): 6.24 µM; TGI (BT-549): 20.3 µM; IC50 (SF-268): 7.08 µM; TGI (SF-268): 30 µM; IC50 (IGROV-1): 9.34 µM; TGI (IGROV-1): > 37 µM; IC50 (SK-MEL-28): 6.57 µM; TGI (SK-MEL-28): 15.5 µM; IC50 (HOP-92): 6.25 µM; TGI (HOP-92): 31.1 µM; IC50 (786-0): 9.34 µM; TGI (786-0): > 37 µM; IC50 (K562): 2.96 µM; TGI (K562): > 37 µM; IC50 (T47D): 7.95 µM; TGI (T47D): > 37 µM; IC50 (NCI-H226): 10.8 µM; TGI (NCI-H226): > 37 µM; IC50 (A498): 7.37 µM; TGI (A498): 31.4 µM; IC50 (SNB-75): 4.18 µM; TGI (SNB-75): 22.7 µM; IC50 (SF-295): 7.16 µM; TGI (SF-295): 21.7 µM; IC50 (NCI-H322M): 9.58 µM; TGI (NCI-H322M): > 37 µM; IC50 (NCI-H460): 6.54 µM; TGI (NCI-H460): 17.1 µM; IC50 (EKVX): 9.63 µM; TGI (EKVX): > 37 µM; IC50 (UACC-257): 7.05 µM; TGI (UACC-257): 16.9 µM; IC50 (SF-539): 6.34 µM; TGI (SF-539): 13.4 µM; IC50 (HOP-62): 14.7 µM; TGI (HOP-62): > 37 µM; IC50 (NCI/ADR-RES): 7.29 µM; TGI (NCI/ADR-RES): 25.4 µM; IC50 (UACC-62): 7.57 µM; TGI (UACC-62): 24.2 µM; IC50 (KM12): 10.5 µM; TGI (KM12): > 37 µM; inhibition [1]: 3%; IC50 (U-251): 9.84 µM; TGI (U-251): > 37 µM
